From patent US20230295157A1, “3-(1H-IMIDAZOL-2-YL)-2,3,8,8A-TETRAHYDROINDOLIZIN-5(1H)-ONE DERIVATIVES USEFUL AS FACTOR XIA INHIBITORS” (JANSSEN PHARMACEUTICA NV, priority 2020, published 2023)
Where two headings read alike, the source gives them in different places.

What was measured:
[1] = target: Factor XIa (Homo sapiens (Human), UniProt P03951); test: Factor XIa inhibition assay (FLINT) utilizing a fluorophore-quencher pair peptide substrate; assay type: biochemical; details: 30 min preincubation, kinetic reads over 30 min, read-out: FXIa Kin Inh IC50
Procedure, shortened: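 FXIa ([…]) preincubated 30 min with compound (11-point 3-fold dilution, top 100 nM, 2% DMSO), then 15 μM quenched FXI Arg146-based peptide added; Tris pH 7.5, CaCl2, BSA, CHAPS. Fluorescence 485/520 nm read kinetically every 5 min over 30 min at RT; IC50 by 4-parameter fit.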

[2] = target: human plasma kallikrein (Homo sapiens (Human), UniProt P03952); test: Kallikrein inhibition assay (FLINT) utilizing a quenched AMC peptide substrate; assay type: biochemical; details: 30 min preincubation, read-out: Kallikrein Kin Inh IC50
Procedure, shortened: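 Fluorogenic Z-Gly-Pro-Arg-AMC cleavage (50 μM substrate, 2 nM kallikrein, Tris pH 7.5, CaCl2, BSA, CHAPS, 2% DMSO) read kinetically at 340/440 nm for 30 min after 30-min compound pre-incubation. Compounds in 11-point 3-fold series from 1 μM; percent inhibition fitted to four-parameter equation for IC50.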

[3] = 5Fam-[…]-K5Tamra substrate 15 μM
[4] = kinetic reads over 30 min, Z-Gly-Pro-Arg-AMC substrate 50 μM
[5] = 5Fam-KLTRAETV-K5Tamra substrate 15 μM

human plasma kallikrein, sequence (P03952 391-638): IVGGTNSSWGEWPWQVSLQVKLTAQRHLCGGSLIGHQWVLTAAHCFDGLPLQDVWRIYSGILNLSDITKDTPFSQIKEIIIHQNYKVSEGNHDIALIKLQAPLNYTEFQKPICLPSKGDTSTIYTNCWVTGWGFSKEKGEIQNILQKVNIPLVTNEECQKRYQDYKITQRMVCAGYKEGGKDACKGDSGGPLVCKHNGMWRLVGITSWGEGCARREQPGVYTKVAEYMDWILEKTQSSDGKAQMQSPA
human plasma kallikrein, sequence (P03952 20-390 partner): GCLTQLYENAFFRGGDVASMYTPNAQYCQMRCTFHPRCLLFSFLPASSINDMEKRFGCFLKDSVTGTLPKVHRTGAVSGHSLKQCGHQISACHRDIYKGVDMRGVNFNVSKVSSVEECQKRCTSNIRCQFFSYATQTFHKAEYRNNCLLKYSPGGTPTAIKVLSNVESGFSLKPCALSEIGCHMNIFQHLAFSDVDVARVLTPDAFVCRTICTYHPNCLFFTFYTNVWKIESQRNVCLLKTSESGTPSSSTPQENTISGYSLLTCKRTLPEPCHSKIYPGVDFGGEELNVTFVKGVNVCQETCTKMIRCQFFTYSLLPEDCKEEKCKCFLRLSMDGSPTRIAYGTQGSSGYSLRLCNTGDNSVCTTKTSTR
Factor XIa, sequence (P03951 388-625): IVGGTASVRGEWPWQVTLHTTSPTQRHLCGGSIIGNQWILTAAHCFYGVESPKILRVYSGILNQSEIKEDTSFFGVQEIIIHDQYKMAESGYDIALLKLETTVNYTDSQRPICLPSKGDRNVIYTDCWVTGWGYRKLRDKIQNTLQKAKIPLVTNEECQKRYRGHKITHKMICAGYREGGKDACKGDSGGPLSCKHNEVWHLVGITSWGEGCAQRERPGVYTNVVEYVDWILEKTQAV
Factor XIa, sequence (P03951 19-387 partner): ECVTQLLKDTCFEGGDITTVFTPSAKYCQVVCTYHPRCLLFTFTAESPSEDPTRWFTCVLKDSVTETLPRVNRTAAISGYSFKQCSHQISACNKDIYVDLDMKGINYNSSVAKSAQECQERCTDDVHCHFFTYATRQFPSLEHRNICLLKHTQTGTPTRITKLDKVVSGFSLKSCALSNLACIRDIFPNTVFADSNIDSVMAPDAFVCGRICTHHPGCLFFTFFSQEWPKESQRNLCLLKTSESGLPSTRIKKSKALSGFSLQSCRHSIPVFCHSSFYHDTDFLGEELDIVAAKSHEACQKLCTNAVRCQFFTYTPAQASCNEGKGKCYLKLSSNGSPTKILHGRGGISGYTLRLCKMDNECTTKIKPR

| SMILES | IC50 [1, 3] | IC50 [2, 4] | IC50 [1, 5] | IC50 ([2]; μM, kinetic reads) |
| --- | --- | --- | --- | --- |
| O=C1C=C(c2cc(Cl)ccc2-n2cc(C(F)(F)F)nn2)C[C@H]2CC[C@@H](c3ncc(-c4ccnc(CO)c4F)[nH]3)N12 (relative stereo) [Example 64, (3S,8aR*)-7-(5-chloro-2-(4-(trifluoromethyl)-1H-1,2,3-triazol-1-yl)phenyl)-3-(5-(3-fluoro-2-(hydroxymethyl)pyridin-4-yl)-1H-imidazol-2-yl)-2 3,8,8a-tetrahydroindolizin-1H-one] | 11.5 nM | 0.156 µM |  |  |
| O=C1OCCN1c1nccc(-c2cnc([C@@H]3CC[C@@H]4CC(c5c(-n6cnnn6)ccc(Cl)c5F)=CC(=O)N43)[nH]2)c1F [Example 114, 3-[4-[2-[(3S,8aR)-7-[3-chloro-2-fluoro-6-(tetrazol-1-yl)phenyl]-5-oxo-2,3,8,8a-tetrahydro-1H-indolizin-3-yl]-1H-imidazol-5-yl]-3-fluoro-2-pyridyl]oxazolidin-2-one] |  | 0.0559 µM | 9.4 nM |  |
| O=C1C=C(c2c(-n3cnnn3)ccc(Cl)c2F)C[C@H]2CC[C@@H](c3nc(F)c(-c4ccnc(-c5ccn[nH]5)c4)[nH]3)N12 (single isomer, unassigned) [Example 31] |  | 0.0018 µM | 0.7 nM |  |
| O=C1C=C(c2c(-n3cc(C(F)(F)F)nn3)ccc(Cl)c2F)C[C@H]2CC[C@@H](c3ncc(-c4ccc5[nH]c(=O)ccc5c4)[nH]3)N12 (single isomer, unassigned) [Example 152, 6-[2-[(3S,8a*R)-7-[3-chloro-2-fluoro-6-[4-(trifluoromethyl)triazol-1-yl]phenyl]-5-oxo-2,3,8,8a-tetrahydro-1H-indolizin-3-yl]-1H-imidazol-5-yl]-1H-quinolin-2-one] |  | 0.001 µM | 0.7 nM |  |
| COC(=O)c1nccc(-c2cnc([C@@H]3CC[C@@H]4CC(c5c(-n6cc(Cl)nn6)ccc(Cl)c5F)=CC(=O)N43)[nH]2)c1F [Example 50] |  | 0.0316 µM | 19.8 nM |  |
| O=C1C=C(c2c(-n3cc(C(F)(F)F)nn3)ccc(Cl)c2F)C[C@@H]2CC[C@H](c3ncc(-c4c[nH]c5ncccc45)[nH]3)N12 (single isomer, unassigned) [Example 140, (3*R,8aS)-3-(5-(1H-pyrrolo[2,3-b]pyridin-3-yl)-1H-imidazol-2-yl)-7-(3-chloro-2-fluoro-6-(4-(trifluoromethyl)-1H-1,2,3-triazol-1-yl)phenyl)-2,3,8,8a-tetrahydroindolizin-5(1H)-one] |  | 0.0062 µM | 2.9 nM |  |
| O=C1C=C(c2c(-n3cnnn3)ccc(Cl)c2F)CC2CC[C@@H](c3ncc(-c4ccc5[nH]c(=O)[nH]c5c4)[nH]3)N12 (stereo partly drawn) [Example 312, 5-(2-((3S)-7-(3-Chloro-2-fluoro-6-(1H-tetrazol-1-yl)phenyl)-5-oxo-1,2,3,5,8,8a-hexahydroindolizin-3-yl)-1H-imidazol-5-yl)-1H-benzo[d]imidazol-2(3H)-one] |  | 0.0006 µM | 0.3 nM |  |
| CC(=O)N[C@H](C)c1ccc(-c2cnc([C@@H]3CCC4CC(c5c(-n6cnnn6)ccc(Cl)c5F)=CC(=O)N43)[nH]2)cc1 (stereo partly drawn) [Example 16, N-[(1R)-1-[4-[2-[(3S)-7-[3-Chloro-2-fluoro-6-(tetrazol-1-yl)phenyl]-5-oxo-2,3,8,8a-tetrahydro-1H-indolizin-3-yl]-1H-imidazol-5-yl]phenyl]ethyl]acetamide] |  | 0.33 µM | 61 nM |  |
| O=C1Cc2ccc(-c3cnc([C@@H]4CCC5CC(c6c(-n7cnnn7)ccc(Cl)c6F)=CC(=O)N54)[nH]3)c(F)c2N1 (stereo partly drawn) [Example 383, 6-(2-((3S)-7-(3-chloro-2-fluoro-6-(1H-tetrazol-1-yl)phenyl)-5-oxo-1,2,3,5,8,8a-hexahydroindolizin-3-yl)-1H-imidazol-5-yl)-7-fluoroindolin-2-one] |  | 0.0126 µM | 3.1 nM |  |
| CS(=O)(=O)Nc1cc(-c2cnc(C3CCC4CC(c5c(-n6cnnn6)ccc(Cl)c5F)=CC(=O)N43)[nH]2)ccn1 (stereo not drawn) [Example 7, N-[4-[2-[7-[3-Chloro-2-fluoro-6-(tetrazol-1-yl)phenyl]-5-oxo-2,3,8,8a-tetrahydro-1H-indolizin-3-yl]-1H-imidazol-5-yl]-2-pyridyl]methanesulfonamide] |  | 0.0701 µM | 6.4 nM |  |
| [2H]C([2H])([2H])C(=O)Nc1cnc(C(F)(F)F)cc1-c1cnc([C@@H]2CC[C@@H]3CC(c4c(-n5cnnn5)ccc(Cl)c4F)=CC(=O)N32)[nH]1 [Example 243, N-[4-[2-[(3S,8aR)-7-[3-Chloro-2-fluoro-6-(tetrazol-1-yl)phenyl]-5-oxo-2,3,8,8a-tetrahydro-1H-indolizin-3-yl]-1H-imidazol-5-yl]-6-(trifluoromethyl)-3-pyridyl]-2,2,2-trideuterio-acetamide] | 52 nM | 0.653 µM |  |  |
| O=C1C=C(c2c(-n3cnnn3)ccc(Cl)c2F)C[C@H]2CC[C@H](c3ncc(-c4ccnc(-n5ccnn5)c4F)[nH]3)N12 (single isomer, unassigned) [Example 71, (3R*,8aR)-7-(3-chloro-2-fluoro-6-(1H-tetrazol-1-yl)phenyl)-3-(5-(3-fluoro-2-(1H-1,2,3-triazol-1-yl)pyridin-4-yl)-1H-imidazol-2-yl)-2,3,8,8a-tetrahydroindolizin-5(1H)-one] | 13.8 nM | 0.0194 µM |  |  |

Second part, the compound after the results:

| IC50 [1, 3] | IC50 [2, 4] | IC50 [1, 5] | IC50 ([2]; μM, kinetic reads) | SMILES |
| --- | --- | --- | --- | --- |
|  |  | > 100 nM | > 1 µM | Nc1ccncc1-c1c[nH]c([C@@H]2CCC3CC(c4c(-n5cnnn5)ccc(Cl)c4F)=CC(=O)N32)n1 (stereo partly drawn) [Example 253, (3S)-3-[4-(4-Amino-3-pyridyl)-1H-imidazol-2-yl]-7-[3-chloro-2-fluoro-6-(tetrazol-1-yl)phenyl]-2,3,8,8a-tetrahydro-1H-indolizin-5-one] |
|  | 0.0029 µM | 1.5 nM |  | O=C1C=C(c2c(-n3cnnn3)ccc(Cl)c2F)C[C@H]2CC[C@@H](c3nc(-c4ccnc5[nH]ccc45)c[nH]3)N12 [Example 32, (3S,8aR)-3-(4-(1H-pyrrolo[2,3-b]pyridin-4-yl)-1H-imidazol-2-yl)-7-(3-chloro-2-fluoro-6-(1H-tetrazol-1-yl)phenyl)-2,3,8,8a-tetrahydroindolizin-5(1H)-one] |
|  | 0.0074 µM | 0.7 nM |  | CNc1ccc(-c2cnc([C@@H]3CCC4CC(c5c(-n6cnnn6)ccc(Cl)c5F)=CC(=O)N43)[nH]2)c(F)n1 (stereo partly drawn) [Example 368, (3S)-7-(3-chloro-2-fluoro-6-(1H-tetrazol-1-yl)phenyl)-3-(5-(2-fluoro-6-(methylamino)pyridin-3-yl)-1H-imidazol-2-yl)-2,3,8,8a-tetrahydroindolizin-5(1H)-one] |
| 33.6 nM | > 0.1 µM |  |  | Nc1ccccc1-c1cnc([C@@H]2CC[C@@H]3CC(c4c(-n5cnnn5)ccc(Cl)c4F)=CC(=O)N32)[nH]1 (relative stereo) [Example 310, (3S,8aR*)-3-(4-(2-Aminophenyl)-1H-imidazol-2-yl)-7-(3-chloro-2-fluoro-6-(1H-tetrazol-1-yl)phenyl)-2,3,8,8a-tetrahydroindolizin-5(1H)-one] |
|  | 0.0026 µM | 0.7 nM |  | CCC(=O)Nc1ccccc1-c1c[nH]c([C@@H]2CC[C@@H]3CC(c4c(-n5cnnn5)ccc(Cl)c4F)=CC(=O)N32)n1 (single isomer, unassigned) [Example 295, N-(2-(2-((3S,8aR*)-7-(3-Chloro-2-fluoro-6-(1H-tetrazol-1-yl)phenyl)-5-oxo-1,2,3,5,8,8a-hexahydroindolizin-3-yl)-1H-imidazol-4-yl)phenyl)propionamide] |
|  | 0.0019 µM | 0.5 nM |  | COc1cc2[nH]cc(-c3cnc([C@@H]4CC[C@@H]5CC(c6c(-n7cnnn7)ccc(Cl)c6F)=CC(=O)N54)[nH]3)c2cn1 [Example 388, (3S,8aR)-7-(3-chloro-2-fluoro-6-(1H-tetrazol-1-yl)phenyl)-3-(5-(6-methoxy-1H-pyrrolo[3,2-c]pyridin-3-yl)-1H-imidazol-2-yl)-2,3,8,8a-tetrahydroindolizin-5(1H)-one] |
|  | 0.021 µM | 2.7 nM |  | Cn1cc(-c2c[nH]c([C@@H]3CCC4CC(c5c(-n6cnnn6)ccc(Cl)c5F)=CC(=O)N43)n2)c(NC(=O)C2CC2)n1 (stereo partly drawn) [Example 259, N-[4-[2-[(3S)-7-[3-Chloro-2-fluoro-6-(tetrazol-1-yl)phenyl]-5-oxo-2,3,8,8a-tetrahydro-1H-indolizin-3-yl]-1H-imidazol-4-yl]-1-methyl-pyrazol-3-yl]cyclopropanecarboxamide] |
|  | 0.0348 µM | 31.1 nM |  | CN(C)c1ccc(-c2cnc([C@@H]3CCC4CC(c5c(-n6cnnn6)ccc(Cl)c5F)=CC(=O)N43)[nH]2)c(F)n1 (stereo partly drawn) [Example 315, (3S)-7-(3-Chloro-2-fluoro-6-(1H-tetrazol-1-yl)phenyl)-3-(5-(6-(dimethylamino)-2-fluoropyridin-3-yl)-1H-imidazol-2-yl)-2,3,8,8a-tetrahydroindolizin-5(1H)-one] |
|  | 0.0141 µM | 0.4 nM |  | O=C(O)c1nccc(-c2cnc([C@@H]3CC[C@@H]4CC(c5c(-n6cnnn6)ccc(Cl)c5F)=CC(=O)N43)[nH]2)c1F [Example 182, 4-(2-((3S,8aR)-7-(3-chloro-2-fluoro-6-(1H-tetrazol-1-yl)phenyl)-5-oxo-1,2,3,5,8,8a-hexahydroindolizin-3-yl)-1H-imidazol-5-yl)-3-fluoropicolinic acid] |
